Measured values from US20110091375A1, “USE OF THE COMBINATION COMPRISING TEMOZOLOMIDE AND TNF-ALPHA FOR TREATING GLIOBLASTOMA” (THE UNIVERSITY OF CHICAGO, priority 2004, published 2011).

Columns and labels:
NF-κB = NF-κB nuclear translocation and DNA binding (nuclear extracts, EMSA); type: cell-based, human
Method: Confluent cultures of U87 cells were grown in complete medium and then left untreated or treated with 10 ng/mL TNFα for 20 m and 1 h+/−16 h pre-treatment with 100 μM TMZ (or 0.1% DMSO control vehicle). Cells were then washed with 10 mL ice-cold PBS, scraped from the dish, and pelleted by centrifugation at 1000 rpm for 5 m at 4° C. Cell pellets were resuspended in 400 μl of ice-cold buffer A (10 mM HEPES, pH 7.9; 10 mM KCl; 0.1 mM EDTA; 1 mM DTT; 0.5 mM phenylmethysulfonylfluoride [PMSF]; 1 μg/mL leupeptin; 5 μg/mL aprotinin) and allowed to swell on ice for 15 m. Following the addition of 25 μl of 10% NP-40, the suspension was vortexed for 10 s and centrifuged at 14,500 rpm for 1 m at 4° C. Nuclei were resuspended in 50 μl of ice-cold buffer B (20 mM HEPES, pH 7.9; […]; 1 mM EDTA; 1 mM DTT; 1 mM PMSF; 25% glycerol; 1 μg/mL leupeptin; 5 μg/mL aprotinin) and incubated on ice for 15 m. […] Protein concentrations for each sample were determined by the Bradford method (Bio-Rad, Richmond, Calif., USA) and were adjusted to 2 μg/μl by the addition of buffer B. […]
20 μg of whole U87 cell (or nuclear) lysate was subjected to sodium dodecyl sulfate (SDS)-polyacrylamide gel electrophoresis (PAGE). […] Immunoreactive bands were detected by SuperSignal enhanced chemiluminescence (ECL) (Pierce, Rockford, Ill., USA) and exposed to Kodak X-Omat film.

IκBα = assay: TNFα-induced IκBα degradation and phosphorylation (Western blot / kinase assay); type: cell-based, human
Method: Cells were then washed with 10 mL ice-cold PBS, scraped from the dish, and pelleted by centrifugation at 1000 rpm for 5 m at 4° C. Cell pellets were resuspended in 400 μl of ice-cold buffer A (10 mM HEPES, pH 7.9; 10 mM KCl; 0.1 mM EDTA; 1 mM DTT; 0.5 mM phenylmethysulfonylfluoride [PMSF]; 1 μg/mL leupeptin; 5 μg/mL aprotinin) and allowed to swell on ice for 15 m. Following the addition of 25 μl of 10% NP-40, the suspension was vortexed for 10 s and centrifuged at 14,500 rpm for 1 m at 4° C. Nuclei were resuspended in 50 μl of ice-cold buffer B (20 mM HEPES, pH 7.9; […]; 1 mM EDTA; 1 mM DTT; 1 mM PMSF; 25% glycerol; 1 μg/mL leupeptin; 5 μg/mL aprotinin) and incubated on ice for 15 m. The nuclear suspension was then centrifuged at 14,500 rpm for 5 m at 4° C. and the supernatant containing the nuclear proteins was transferred to a clean tube. Protein concentrations for each sample were determined by the Bradford method (Bio-Rad, Richmond, Calif., USA) and were adjusted to 2 μg/μl by the addition of buffer B.
20 μg of whole U87 cell (or nuclear) lysate was subjected to sodium dodecyl sulfate (SDS)-polyacrylamide gel electrophoresis (PAGE). Following electro-transfer, Immobilon-P membranes (Millipore Corp. Burlington, Mass., USA.) were probed with primary polyclonal antibody against IκBα, phospho-Ser32-IκBα, SAPK/JNK, phospho-Thr183/Tyr185-SAPK/JNK, p65, phospho-Ser536-p65 (Cell Signaling Technology Inc. Beverly, […]., USA) diluted 1:1000 overnight at 4° C. Anti-rabbit IgG HRP-linked secondary antibody (Cell Signaling Technology) was diluted 1:1000 in blocking buffer and applied for 1 h at room temperature. Immunoreactive bands were detected by SuperSignal enhanced chemiluminescence (ECL) (Pierce, Rockford, Ill., USA) and exposed to Kodak X-Omat film.
IκK was immunoprecipitated from treated U87 cell extracts with anti-IKKβ antibody, (Santa Cruz Biotechnology, Santa Cruz, Calif., USA). […] Kinase activity was quantified using a Phosphoimager and Equal protein loading determined by immunoblotting with anti-IκKβ antibody (Upstate USA, Charlottesville, Va., USA). […]

Q: What does the source list for `Cn1nnc2c(C(N)=O)ncn2c1=O` [TMZ, temozolomide]?
A: TNFα-induced NF-κB DNA binding (NF-κB): does not directly affect; TNFα-induced NF-κB nuclear translocation (NF-κB; glioma cells): inhibiting NF-κB nuclear translocation; reduction of TNFα-induced phosphorylation of IκBα (IκBα; TMZ pretreatment, at 5 m): 50%; degradation of IκBα (IκBα; at 15 m, TNFα with or without TMZ pretreatment): reduced TNFα-induced degradation
